In patent US12157730B2, “Heteroaryl derivative, method for producing same, and pharmaceutical composition comprising same as effective component” (VORONOI INC., priority 2019, dated 2024):

Molecular target: T1, Ba/F3 cell EGFR Exon20 ins NPH (Homo sapiens, UniProt P00533, INS773NPH)
T1 construct: expressed in transfected cells; host or cells: Ba/F3
Assay: Ba/F3 cell proliferation suppression, EGFR Exon20 ins NPH
Assay type: cell-based
Conditions: GI50 class; Ba/F3 cell line with NPH inserted at Exon20 of EGFR; 72 hours
Outline: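 Seed 3000–5000 cells/well; after 24 h add compound (12 conc., 0.3 nM–50 um final); incubate 72 h; add CellTiter-Glo, 10 min room temperature; read luminescence; GI50 from % growth vs control, triplicate.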

Row | Ba/F3 (NPH) Activity | SMILES
1 | A (GI50 < 50 nM) | C=CC(=O)Nc1cc(Nc2cc(N3OCC[C@@H]3c3ccc(F)cc3F)ncn2)c(OC)cc1N1CCC(N2CCC(N3CCOCC3)CC2)CC1 [compound 426, N-(5-((6-((R)-3-(2,4-difluorophenyl)isoxazolidine-2-yl)pyrimidine-4-yl)amino)-4-methoxy-2-(4-morpholino-[1,4'-bipiperidine]-1'-yl)phenyl)acrylamide]
2 | A (GI50 < 50 nM) | C=CC(=O)Nc1cc(Nc2cc(N3OCC[C@@H]3c3ccc(Cl)cc3)ncn2)c(OC)cc1N1CCC(N2CC[C@@H](N(C)C)C2)CC1 [compound 783, N-(5-((6-((R)-3-(4-chlorophenyl)isoxazolidine-2-yl)pyrimidine-4-yl)amino)-2-(4-((R)-3-(dimethylamino)pyrolidine-1-yl)piperidine-1-yl)-4-methoxyphenyl) acrylamide]
3 | A (GI50 < 50 nM) | C=CC(=O)Nc1cc(Nc2cc(N3OCC[C@@H]3c3ccc(F)c(Cl)c3)ncn2)c(OC)cc1N1CCN(C(C)C)CC1 [compound 724, N-(5-((6-((R)-3-(3-chloro-4-fluorophenyl)isoxazolidine-2-yl)pyrimidine-4-yl)amino)-2-(4-isopropylpiperazine-1-yl)-4-methoxyphenyl) acrylamide]
4 | A (GI50 < 50 nM) | C=CC(=O)Nc1cc(Nc2cc(N3OCC[C@@H]3c3ccc(Cl)c(F)c3)ncn2)c(OC)cc1N1CCN(C2CC2)CC1 [compound 364, N-(5-((6-((R)-3-(4-chloro-3-fluorophenyl)isoxazolidine-2-yl)pyrimidine-4-yl)amino)-2-(4-cyclopropylpiperazine-1-yl)-4-methoxyphenyl) acrylamide]
5 | B (50 nM ≤ GI50 < 500 nM) | C=CC(=O)Nc1cc(Nc2cc(N3OCC[C@@H]3c3ccc(Cl)c(Cl)c3F)ncn2)c(OC)cc1N1CC[C@@H](N(C)C)C1 [Example 291, N-(5-((6-((R)-3-(3,4-dichloro-2-fluorophenyl)isoxazolidine-2-yl)pyrimidine-4-yl)amino)-2-((R)-3-(dimethylamino)pyrolidine-1-yl)-4-methoxyphenyl) acrylamide]
6 | A (GI50 < 50 nM) | C=CC(=O)Nc1cc(Nc2cc(N3OCC[C@@H]3c3cc(F)ccc3F)ncn2)c(OC)cc1N1CCC(N2C[C@H](C)N(C3CC3)C[C@@H]2C)CC1 [Example 171, N-(2-(4-((2S,5S)-4-cyclopropyl-2,5-dimethylpiperazine-1-yl)piperidine-1-yl)-5-((6-((R)-3-(2,5-difluorophenyl)isoxazolidine-2-yl)pyrimidine-4-yl)amino)-4-methoxyphenyl) acrylamide]
7 | A (GI50 < 50 nM) | C=CC(=O)Nc1cc(Nc2cc(N3OCC[C@@H]3Cc3cccc(F)c3C)ncn2)c(OC)cc1N1CCC(N2C[C@@H]3C[C@H]2CO3)CC1 [compound 1040, N-(2-(4-((1S,4S)-2-oxa-5-azabicyclo [2.2.1]heptane-5-yl)piperidine-1-yl)-5-((6-((S)-3-(3-fluoro-2-methylbenzyl)isoxazolidine-2-yl)pyrimidine-4-yl)amino)-4-methoxyphenyl) acrylamide]
8 | A (GI50 < 50 nM) | C=CC(=O)Nc1cc(Nc2cc(N3OCC[C@@H]3c3cc(F)ccc3F)ncn2)c(OC)cc1N1CCN(C2COC2)CC1 [compound 881, N-(5-((6-((R)-3-(2,5-difluorophenyl)isoxazolidine-2-yl)pyrimidine-4-yl)amino)-4-methoxy-2-(4-(oxetane-3-yl)piperazine-1-yl)phenyl) acrylamide]
9 | A (GI50 < 50 nM) | C=CC(=O)Nc1cc(Nc2cc(N3OCC[C@@H]3c3ccc(Cl)c(Cl)c3)ncn2)c(OC)cc1N1CC[C@@H](N(C)C)C1 [compound 682, N-(5-((6-((R)-3-(3,4-dichlorophenyl)isoxazolidine-2-yl)pyrimidine-4-yl)amino)-2-((R)-3-(dimethylamino)pyrolidine-1-yl)-4-methoxyphenyl) acrylamide]
